According to PMC11602115 (Journal of Medicinal Chemistry, 2017):
Like-named read-outs stand apart in the source and are kept apart here.

Tests used:
human DP1 receptor = target: T1, human DP1 receptor (Homo sapiens, UniProt Q13258); assay: HTRF cAMP assay, recombinant human DP1 receptor in CHO-K1 cells; type: cell-based; details: for Emax: CHO-K1, intrinsic activity relative to 1 μM PGD2, read-out: hDP1 % IA; for EC50: HTRF (cAMP) human DP1 receptor assay, mean of at least three determinations, read-out: EC50 hDP1; for DP1 % I.A: cAMP HTRF agonist assay (Gs), Table Sup2
T1 construct: expressed in transfected cells
T1 sequence (Q13258 1-359): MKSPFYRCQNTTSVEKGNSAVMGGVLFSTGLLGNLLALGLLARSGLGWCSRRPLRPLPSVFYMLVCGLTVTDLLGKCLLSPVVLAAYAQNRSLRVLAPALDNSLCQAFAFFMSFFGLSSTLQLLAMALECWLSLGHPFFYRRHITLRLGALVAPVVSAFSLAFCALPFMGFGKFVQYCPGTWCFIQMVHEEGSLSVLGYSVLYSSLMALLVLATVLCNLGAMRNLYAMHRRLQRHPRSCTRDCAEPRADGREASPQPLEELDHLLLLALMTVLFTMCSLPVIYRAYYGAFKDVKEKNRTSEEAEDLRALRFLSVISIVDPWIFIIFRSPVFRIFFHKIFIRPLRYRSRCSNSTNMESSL

dog IP = dog IP (Canis lupus familiaris, UniProt A0A8I3MUB8); assay: Radioligand binding, dog IP ([3H]-iloprost)
Procedure: (§1) CHO-K1 cells expressing recombinant IP receptors were harvested, washed with ice-cold phosphate buffered saline, pH 7.4 (PBS), and then centrifuged at 48 000g for 20 min at 4 °C. The resulting cell pellet was then resuspended in ice-cold PBS containing 20 mM HEPES, pH 7.4, and 0.1 mM EDTA, homogenized on ice using a Brinkman Polytron, and centrifuged (48 000g for 20 min at 4 °C). This resuspension and centrifugation process was repeated one further time. Crude membrane pellets were stored at −80 °C until used for radioligand binding assays.
(§2) Assay incubations were terminated by rapid filtration through PerkinElmer GF/C filtration plates pretreated with 0.3% PEI, under vacuum pressure using a 96-well Packard filtration apparatus, followed by multiple washes with ice-cold wash buffer (PBS containing 20 mM HEPES and 0.1 mM EDTA, pH 7.4). Plates were then dried at 45 °C for a minimum of 2 h. Finally, 25 μL of BetaScint scintillation cocktail was added to each well and plates were counted in a Packard TopCount scintillation counter. In each competition study, test compounds were dosed at 10 concentrations with triplicate determinations at each test concentration. A reference compound, typically iloprost, was included in every runset for quality control purposes.

EP2 = EP2 (Homo sapiens, UniProt P43116); assay: cAMP HTRF agonist assay, EP2; type: cell-based; details: for agonist activity at EP2: HTRF cAMP functional assay
Text: Table Sup2: Data with some comparator compounds in functional assays. […]

EP4 = EP4 (Homo sapiens, UniProt P35408); assay: cAMP HTRF agonist assay, EP4; type: cell-based; details: for agonist activity at EP4: HTRF cAMP functional assay
Text: Table Sup2: Data with some comparator compounds in functional assays.
Compound DP1 EP1 EP2 EP3v6 EP4
EC50, µµµµM (% I.A) EC50, µµµµM (% I.A) EC50, µµµµM (% I.A) EC50, µµµµM (% I.A) EC50, µµµµM (% I.A)
n = 3 n = 2 n = 8 n = 6 n = 6 […]

IP = IP (Homo sapiens, UniProt P43119); assay: HTRF cAMP assay, recombinant human IP receptor stably expressed in CHO-K1 cells; type: cell-based; design: expressed in transfected cells
rat IP [1] = target: T2, rat IP (Rattus norvegicus, UniProt P43253); assay: HTRF cAMP assay, recombinant rat IP receptor; type: cell-based; design: expressed in transfected cells; details: for EC50: HTRF (cAMP) rat IP receptor assay, mean of at least three determinations; for Emax: read-out: rIP % IA
rat IP [2] = target: T2, rat IP; assay: Radioligand binding, rat IP ([3H]-iloprost); design: expressed in transfected cells; host or cells: CHO-K1 (crude membranes)
Procedure: as §1, §2

[3] = read-out: Ki dog IP ([3H]-iloprost)

T2 sequence (P43253 whole entry): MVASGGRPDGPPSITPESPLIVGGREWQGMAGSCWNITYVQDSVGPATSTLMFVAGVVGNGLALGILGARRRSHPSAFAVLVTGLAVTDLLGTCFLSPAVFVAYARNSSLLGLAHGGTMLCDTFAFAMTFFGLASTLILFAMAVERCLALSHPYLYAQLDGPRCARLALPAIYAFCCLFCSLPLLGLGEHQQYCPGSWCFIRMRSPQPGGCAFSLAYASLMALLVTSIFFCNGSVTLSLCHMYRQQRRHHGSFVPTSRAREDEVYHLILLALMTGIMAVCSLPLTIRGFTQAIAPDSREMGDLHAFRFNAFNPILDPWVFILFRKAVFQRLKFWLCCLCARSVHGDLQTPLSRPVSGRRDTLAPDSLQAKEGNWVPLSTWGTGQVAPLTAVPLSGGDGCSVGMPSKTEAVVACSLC
Sequence of EP4 (P35408 whole entry): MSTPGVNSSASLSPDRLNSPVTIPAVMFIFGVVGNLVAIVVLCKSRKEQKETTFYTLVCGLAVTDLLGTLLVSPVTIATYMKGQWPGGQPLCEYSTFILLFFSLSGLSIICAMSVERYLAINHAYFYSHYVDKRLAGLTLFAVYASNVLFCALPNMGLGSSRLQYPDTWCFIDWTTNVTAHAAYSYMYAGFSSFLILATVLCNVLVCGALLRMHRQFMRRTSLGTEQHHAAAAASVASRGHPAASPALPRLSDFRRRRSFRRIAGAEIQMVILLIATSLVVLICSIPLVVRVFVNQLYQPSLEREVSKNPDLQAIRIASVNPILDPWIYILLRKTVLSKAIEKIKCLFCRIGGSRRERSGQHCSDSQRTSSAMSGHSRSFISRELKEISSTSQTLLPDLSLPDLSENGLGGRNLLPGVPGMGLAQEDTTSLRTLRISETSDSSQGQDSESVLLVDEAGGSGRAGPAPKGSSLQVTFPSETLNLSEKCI
Sequence of IP (P43119 whole entry): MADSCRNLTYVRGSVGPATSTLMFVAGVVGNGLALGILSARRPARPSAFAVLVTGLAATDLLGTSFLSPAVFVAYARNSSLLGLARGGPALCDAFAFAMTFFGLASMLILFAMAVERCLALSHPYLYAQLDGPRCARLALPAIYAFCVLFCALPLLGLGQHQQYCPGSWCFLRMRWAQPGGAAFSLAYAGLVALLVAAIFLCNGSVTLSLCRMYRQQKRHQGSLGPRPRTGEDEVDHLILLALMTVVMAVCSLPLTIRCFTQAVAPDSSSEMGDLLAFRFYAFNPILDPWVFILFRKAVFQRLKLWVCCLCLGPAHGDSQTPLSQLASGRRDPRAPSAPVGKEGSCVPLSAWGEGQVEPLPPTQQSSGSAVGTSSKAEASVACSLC
Sequence of dog IP (A0A8I3MUB8 1-381): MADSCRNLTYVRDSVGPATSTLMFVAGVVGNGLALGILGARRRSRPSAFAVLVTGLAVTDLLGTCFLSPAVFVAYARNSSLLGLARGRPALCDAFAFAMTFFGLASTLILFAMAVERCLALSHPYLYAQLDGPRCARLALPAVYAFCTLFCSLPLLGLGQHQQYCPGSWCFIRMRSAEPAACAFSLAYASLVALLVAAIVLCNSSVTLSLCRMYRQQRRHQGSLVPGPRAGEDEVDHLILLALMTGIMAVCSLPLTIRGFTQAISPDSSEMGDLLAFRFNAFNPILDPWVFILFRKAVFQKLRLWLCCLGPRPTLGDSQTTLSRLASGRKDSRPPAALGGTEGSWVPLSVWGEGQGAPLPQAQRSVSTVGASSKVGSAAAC
Sequence of EP2 (P43116 whole entry): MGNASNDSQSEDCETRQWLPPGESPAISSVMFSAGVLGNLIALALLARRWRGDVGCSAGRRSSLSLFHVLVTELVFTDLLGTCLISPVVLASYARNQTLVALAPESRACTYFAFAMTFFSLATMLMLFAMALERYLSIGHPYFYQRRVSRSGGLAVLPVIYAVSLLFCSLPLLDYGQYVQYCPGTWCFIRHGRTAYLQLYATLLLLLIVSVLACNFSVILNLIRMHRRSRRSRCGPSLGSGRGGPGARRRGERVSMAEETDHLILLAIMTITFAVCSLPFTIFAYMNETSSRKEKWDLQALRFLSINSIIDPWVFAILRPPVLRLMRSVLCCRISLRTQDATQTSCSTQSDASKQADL

Structure (SMILES) | Emax (human DP1 receptor) | EC50 (human DP1 receptor) | DP1 % I.A (human DP1 receptor) | Ki (dog IP) | EC50 (EP2; cAMP HTRF agonist assay) | EP2 % I.A (EP2; cAMP HTRF agonist assay) | EC50 (EP4; cAMP HTRF agonist assay) | EP4 % I.A (EP4; cAMP HTRF agonist assay) | Emax (IP; CHO-K1, read-out: hIP % IA) | EC50 (rat IP [1]) | Emax (rat IP [1]) | Ki (rat IP [2]) | Ki (dog IP; [3]) | agonist activity at EP2 (EP2) | agonist activity at EP4 (EP4) | Emax (IP; CHO-K1; read-out: hIP % IA) | EC50 (IP; HTRF (cAMP) human IP receptor assay; mean of at least three determinations)
CC#CCC(C)[C@H](O)/C=C/[C@@H]1[C@H]2C/C(=C/CCCC(=O)O)C[C@H]2C[C@H]1O (stereo partly shown) [iloprost] | 42% | 147 nM | 42% | 1.7 nM | 144 nM | 110% | 410 nM | 96% | 101% | 0.69 nM | 99% | 1 nM |  |  |  |  | 
O=C(O)COC[C@H]1CC[C@H](COC(=O)N(c2ccccc2)c2cccc(F)c2)CC1 [5g, 2-(((1r,4r)-4-(((3-Fluorophenyl)(phenyl)carbamoyloxy)methyl)cyclohexyl)methoxy)acetic Acid] | 61% | 2760 nM |  |  |  |  |  |  |  | 284 nM | 83% | 51 nM | 183 nM | no significant agonist activity | no significant agonist activity | 85% | 8.7 nM
O=C(O)COC[C@H]1CC[C@H](COC(=O)N(c2ccccc2)c2ccc(Cl)cc2)CC1 [5c, Sodium 2-(((1r,4r)-4-(((4-Chlorophenyl)(phenyl)carbamoyloxy)methyl)cyclohexyl)methoxy)acetate] | 52% | 850 nM | 52% |  | > 10000 nM |  | > 10000 nM |  | 85% | 530 nM | 88% | 76 nM | 256 nM | no significant agonist activity | no significant agonist activity |  | 
